The record followed here is patent EP0318767A2, “Esters of pharmacologically active carboxylic acids splittable under physiological conditions” (F. HOFFMANN-LA ROCHE AG, priority 1987, dated 1989).

For one series, the system named is Escherichia coli 25922. As to the kind of experiment: Experimental septicaemia in mice, oral antimicrobial efficacy. In kind it is in vivo. The note with it: Albino mice 16-20 g infected i.p. with Escherichia coli 25922, ester given orally in Tween 80 (4%) 1 and 3 h after infection, dose protecting 50% of animals, survival 4 days after infection, probit method; for ED50: read-out: ED₅₀ in mg/kg p.o. From the text: Die perorale antimikrobielle Wirksamkeit der erfindungsgemässen Ester von antibiotisch wirksamen Carbonsäuren kann beispielsweise im nachfolgend beschriebenen Tierversuch nachgewiesen werden:
(§1) Man verursacht eine experimentelle Septikämie in 16-20 g schweren Albinomäusen, indem man den Versuchstieren eine Probe einer verdünnten Kultur des Testorganismus, Escherichia coli 25922, welche über Nacht gewachsen ist. intraperitoneal injiziert. Die verabreichte Probe wird dabei so bemessen, dass die verabreichte Dosis etwa 10-20 mal grösser ist, als die Dosis, welche benötigt wird um 50% der unbehandelten Versuchstiere innerhalb von 48 Stunden zu töten. Die Bakterien wurden als Suspension in Kulturbrühe injiziert. Sowohl für die Kontrolle als auch für die Behandlung wurden für jede getestete Dosis Gruppen zu je 5 Versuchstieren verwendet. Die erfindungsgemässen Ester wurden oral verabreicht, und zwar als Lösung in Tween 80 (4%), wobei die Konzentrationen so gewählt wurden, dass jedes Versuchstier 500 µl erhielt. Die Behandlungen erfolgten 1 und 3 Stunden nach der Infektion. Die ED₅₀ ist diejenige Dosis, welche 50% der Versuchstiere schützt, und wurde ausgehend von der Ueberlebensrate nach 4 Tagen nach der Infektion mittels der Probitmethode berechnet. In der nachfolgenden Tabelle sind die ED₅₀-Werte in mg/kg p.o. für Vertreter der erfindungsgemassen Stoffklasse angegeben. Die Tabelle enthält ausserdem Angaben über die akute Toxizität der erfindungsgemässen Ester bei einmaliger oraler Verabreichung an Mäusen. Tabelle

The subject of the next series is Mäusen. As to the kind of experiment: Acute toxicity after a single oral administration to mice. Format: in vivo.
Description: as §1

As for `C/C=C(\COC(=O)C1=C(C)CS[C@@H]2[C@H](NC(=O)/C(=N\OC)c3csc(N)n3)C(=O)N12)C(=O)OCC` [Verbindung C, (E)-2-(Aethoxycarbonyl)-2-butenyl (6R,7R)-7-[(Z)-2-(2-amino-4-thiazolyl)-2-(methoxyimino)acetamido]-3-methyl-8-oxo-5-thia-azabicyclo[4.2.0]oct-2-en-2-carboxylat], the “ED₅₀ in mg/kg p.o.” value in the series with Escherichia coli 25922 is given as 0,89 mg/kg. For the same compound, in the series on Mäusen, the “DL₅₀ in mg/kg p.o.” value is given as more than 5000 mg/kg.

For `CC/C=C(\COC(=O)C1=C(C)CS[C@@H]2[C@H](NC(=O)/C(=N\OC)c3csc(N)n3)C(=O)N12)C(=O)OCC(C)C` [Verbindung B, (E)-2-(Isobutoxycarbonyl)-2-pentenyl (6R,7R)-7-[(Z)-2-(2-amino-4-thiazolyl)-2-(methoxyimino)acetamido]-3-methyl-8-oxo-5-thia-1-azabicyclo[4.2.0]oct-2-en-2-carboxylat], in the series on Escherichia coli 25922, the ED50 was found to be 1.4 mg/kg.

`CC/C=C(\COC(=O)C1=C(CN=[N+]=[N-])CS[C@@H]2[C@H](NC(=O)/C(=N\OC)c3csc(N)n3)C(=O)N12)C(=O)OCC(C)C` [Verbindung A, (E)-2-(Isobutoxycarbonyl)-2-pentenyl (6R,7R)-7-[(Z)-2-(2-amino-4-thiazolyl)-2-(methoxyimino)acetamido]-3-(azidomethyl)-8-oxo-5-thia-1-azabicyclo[4.2.0]oct-2-en-2-carboxylat]: the ED50 in the series on Escherichia coli 25922 was 0.28 mg/kg. In addition, in the series on Mäusen, the “DL₅₀ in mg/kg p.o.” value was more than 5000 mg/kg.
